In patent publication US7482032B2, “Carotenoid preparation” (I.B.R. Israeli Biotechnology Research, Ltd., priority 1998, dated 2009):

Experiments:
[1] = Stability under visible light (filtered sunlight, aerobic); type: physicochemical
Protocol: Stability of phytoene and phytofluene under visible light was measured under sunlight (full sun summer day in Rehovot, Israel, at noon) filtered through “hot mirror” (Andover Corporation, Salem, N.H., transmittance 400-650 nm) filter. Samples were dissolved in ethanol, exposed to light for 30-150 min and then extracted in hexane after basic hydrolysis (as in extraction method above). Phytoene, phytofluene and beta-carotene amounts were measured spectrophotometrically, and percentage lefts were calculated as in section 5 above.
Stability of phytoene and phytofluene was compared to that of beta-carotene stability (as explained in materials and methods) under visible light. The absorbance of the preparation is determined in 220-600 nm wavelength and the amount of each of the above carotenoids in each sample is calculated to determine the percent of the carotenoids measured after irradation of the extract compared to measurements prior to irradiant (see example 2 above).

[2] = UV absorbance spectra (spectrophotometric analysis); type: physicochemical; conditions: extract from Dunaliella sp.
Protocol: Absorption spectra of the phytoene and phytofluene extract was determined using Hewlett Packard 8452A Diode Array Spectrophotometer.
As expected, the main absorbance peak for β-carotene was at 450 nm. β-Carotene was reduced due to the synthesis inhibition while phytoene and phytofluene increased.

[3] = Stability of phytoene and phytofluene under UV irradiation (aerobic); type: physicochemical
Protocol: 6. Stability of Phytoene and Phytofluene Under Aerobic Conditions in UV Lights and Various Incubation Temperatures
(§1) Stability of the carotenoids in the various temperatures was determined by long-term incubation of phytoene and phytofluene in several types of oils and solvents at 4° C., 23° C., 30° C. and 60° C. The amount of phytoene and phytofluene left was determined spectrophotometrically. The percent of phytoene and phytofluene left was calculated as follows:
[formula] Stability under UV lights (254 nm, 365 nm, 254+365 nm), for 30 mins. at 300/310 μw/cm^2 was determined. 7. Stability of Phytoene and Phytofluene Under Aerobic Conditions in Visible Light
The stability of the phytoene and phytofluene extracts obtained as explained in Example 1 above was determined by spectrophotometric analysis. Phytoene and phytofluene were dissolved in hexane or oil. The absorbance of the preparation is determined in 220-600 nm and the amount of each of the above carotenoids in each sample is calculated to determine the percent of the carotenoids measured after irradiation of the extract divided by the amount of the same carotenoid which was measured in the extract before exposing it to irradiation (see Materials and Methods 5 above). The stability of the phytoene and phytofluene was measured by the exposure of the extract both to UVA light (365 nm) and UVB light (254 nm) irradiation as well as to a combination of UVA and UVB irradiation.

[4] = Stability of phytoene and phytofluene at various incubation temperatures in oils and solvents; type: physicochemical; conditions: 4° C., 23° C., 30° C. and 60° C., hexane or oils, four months
Protocol: as §1, with “follows: […]” for “follows:”
The stability of phytoene and phytofluene under different temperature conditions (4° C., 23° C., 30° C. and 60° C.) in hexane or in other various commercially used oils was also measured.
The measurements were carried out over a period of four months.

[5] = tested on: DNA repair synthesis activity; assay: Genotoxic effect: induction of DNA repair synthesis activity (ratio R); type: biochemical; conditions: R≦2 no toxic effect
Protocol: The genotoxicity is measured as the induction of DNA repair synthesis activity and is expressed by the ratio (R): while R≦2 indicate no toxic effect

[6] = 254 nm + 365 nm, 30 minutes exposure, in hexane
[7] = 254 nm + 365 nm, 30 minutes exposure, in oil
[8] = 254 nm, 30 minutes exposure, in hexane
[9] = 254 nm, 30 minutes exposure, in oil
[10] = 365 nm, 30 minutes exposure, in hexane
[11] = 365 nm, 30 minutes exposure, in oil
[12] = Darkness, 30 minutes, in hexane

% left ([1]; time of exposure 0 min) [%] | % left ([1]; time of exposure 30 min) [%] | % left ([1]; time of exposure 90 min) [%] | % left ([1]; time of exposure 120 min) [%] | % left ([1]; time of exposure 150 min) [%] | main absorbance peak [2] [nm] | PH and PF (% left) [3, 6] [%] | PH and PF (% left) [3, 7] [%] | PH and PF (% left) [3, 8] [%] | PH and PF (% left) [3, 9] [%] | PH and PF (% left) [3, 10] [%] | PH and PF (% left) [3, 11] [%] | PH and PF (% left) [3, 12] [%] | PH and PF (% left) ([3]; Darkness, 30 minutes, in oil) [%] | SMILES | Stability under different temperature conditions [4] | Genotoxicity (Ratio) ([5]; concentration 2 mM) | Genotoxicity (Ratio) ([5]; concentration 10 mM)
100 | 25.00 | 11.36 | 9.47 | 5.68 | 450 | – | – | – | – | – | – | – | – | CC1=C(/C=C/C(C)=C/C=C/C(C)=C/C=C/C=C(C)/C=C/C=C(C)/C=C/C2=C(C)CCCC2(C)C)C(C)(C)CCC1 [Beta-carotene, reference compound] | – | – | –
100 | 54.46 | 20.33 | 15.70 | 13.64 | 286 | 92.4 | 101 | 92.2 | 100 | 98.7 | 100 | 100 | 100 | CC(C)=CCC/C(C)=C/CC/C(C)=C/CC/C(C)=C/C=C/C=C(\C)CC/C=C(\C)CC/C=C(\C)CCC=C(C)C [Phytoene, 7,8, 11, 12, 7′, 8′, 11′, 12′-octahydro-γ,γ-carotene] | stable in the entire measured temperature range | – | –
100 | 66.13 | 50.42 | 41.33 | 33.06 | 348 | 99.0 | 98 | 92.6 | 90 | 101.5 | 88 | 100 | 100 | CC(C)=CCC/C(C)=C/CC/C(C)=C/C=C/C(C)=C/C=C/C=C(\C)CC/C=C(\C)CC/C=C(\C)CCC=C(C)C [Phytofluene, 15Z, 7,8, 11, 12, 7′, 8′-hexahydro-γ,γ-carotene] | stable in the entire measured temperature range | – | –
– | – | – | – | – | – | – | – | – | – | – | – | – | – | COS(C)(=O)=O [MMS] | – | 2.44 | 6.26
